Test: gradient 5% acetonitrile 3 min, to 50% in 2 min, to 85% in 15 min, held 3 min, 100 µL/min
Conditions: column: Zorbax Extend-C18 2.1 x 50 mm; eluents: water / acetonitrile, 0.1% formic acid
Procedure, shortened: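 The system's dead and dwell volumes were 40 μL and 900 μL, with a Zorbax Extend-C18 column (2.1 × 50 mm, 1.8 μm) run at 100 μL/min in water and acetonitrile containing 0.1% formic acid each. Pure standards were analyzed in mixtures of ~100 molecules by HPLC–quadrupole time-of-flight mass spectrometry in positive and negative ionization mode. Retention time was assigned from computationally picked, manually inspected adduct peaks.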

Compound	RP-LC retention time
CCc1ccc(-c2noc(Cn3c(=O)n(-c4cccc(OC)c4)c(=O)c4sccc43)n2)cc1	1060 s
O=C(Nc1ccc(Cl)cc1)N1CCN(c2nc3ccccc3nc2C(F)(F)F)CC1	1150 s
CCc1nc(-c2csc(S(=O)(=O)N3CCCC(C(=O)Nc4cc(C)ccc4C)C3)c2)no1 (stereo not drawn)	1090 s
Cc1ccc(-n2nc(N3CCN(C(=O)Nc4ccccc4Cl)CC3)ccc2=O)cc1	833 s
CCNC(=O)c1ccc(-c2nc3cc(NS(=O)(=O)c4cccs4)ccc3n2C)cc1	630 s
CCN(CC(=O)N1CCC(C(N)=O)CC1)S(=O)(=O)c1ccc(F)cc1	635 s
CCC(=O)N1CCc2cc(N3CC(C(=O)NCc4ccc(C)cc4)CC3=O)ccc21 (stereo not drawn)	756 s
CC1(C)CC(=O)c2cn(-c3ccccc3)c(=O)c(C(=O)Nc3ccccc3)c2C1	803 s
Cc1ccc2oc(=O)n(Cc3noc(C(=O)NCCC4=CCCCC4)n3)c2c1	1090 s
CCn1c(CC2C(=O)Nc3ccc(Br)cc32)nc2ccccc2c1=O (stereo not drawn)	825 s
O=C(c1nnc(-c2ccc(S(=O)(=O)N3CCOCC3)cc2)o1)N1CCOCC1	689 s
O=C(Cn1c(-c2cccnc2)nc2ccccc21)Nc1nccs1	628 s
O=S(=O)(c1ccccc1F)N1CCC(c2noc(-c3ccccc3)n2)CC1	1020 s
Cn1cc(S(=O)(=O)N2CCCCC2)cc1C(=O)N1CCN(c2ccc(F)cc2)CC1	940 s
O=C(NCc1cccc(F)c1)c1cc2n(n1)CCCC2	782 s
CCSc1nnc(NC(=O)CN(C)c2nc3c(Cl)cccc3s2)s1	904 s
Fc1ccccc1-c1noc(-c2nc(-c3ccccc3F)no2)n1	1140 s
O=C(Nc1nnc(SCc2cn3ccccc3n2)s1)C1(c2cccs2)CCCC1	611 s
Cn1nc(-c2nnc(-c3ccc(F)cc3)o2)c2c1CCN(S(=O)(=O)c1cccc(C#N)c1)C2	891 s
COC(=O)c1cnc2nc(C)ccc2c1Nc1cccc(F)c1	673 s
Cc1cc(OCC(=O)NCc2ccc(Cl)cc2)nc(N2CCN(c3ccccc3)CC2)n1	868 s
OC(COc1cccc2ccccc12)CN1CCN(c2ccc(Cl)cc2)CC1 (stereo not drawn)	856 s

Compound	RP-LC retention time
O=C(NCCCc1ccccc1)C(=O)NCc1n[nH]c(=O)c2ccccc12	746 s
CN1CCN(C2Cc3ccccc3Sc3ccc(Cl)cc32)CC1 (stereo not drawn)	872 s
OCCNCc1ccc(-c2ccc(Cl)cc2)o1	966 s
CC(C)C(=O)Nc1nnc2n1CCS2	519 s
CCN(CC)S(=O)(=O)c1ccc2c(c1)CC(C(=O)N1CCCCC1)N2C(C)=O (stereo not drawn)	804 s
COCCN1C(=O)Cc2ccccc2C1C(=O)NCc1ccccc1 (stereo not drawn)	684 s
Cc1cc(C)n2c(Nc3ccc4c(c3)OCCO4)c(-c3cccc(Br)c3)nc2n1	759 s
CCCN1C(=O)c2c(C(=O)N3CCOCC3)ncn2CC1(C)C(=O)NCc1ccc(F)cc1 (stereo not drawn)	618 s
CSc1ccc(-c2nc3ncccn3c2Nc2cccc(Cl)c2C)cc1	968 s
Cn1cnc(S(=O)(=O)N2CC(N(Cc3ccccc3)C3CCOCC3)C2)c1	600 s
COc1ccc(CN2CC(C(=O)N3CCN(c4cc(=O)n(C)c(=O)n4C)CC3)CC2=O)cc1 (stereo not drawn)	630 s
Cc1ccc(Cn2c(N3CCCC(C(=O)NC4CCCCC4)C3)nc3ccsc3c2=O)cc1 (stereo not drawn)	1020 s
CCC(C)(C)NC(=O)c1cc2c(s1)N(CCOC)CCCC2	1020 s
CCOc1ccc(C2c3[nH]c4ccccc4c3CCN2C(=O)C2CC2)cc1 (stereo not drawn)	1090 s
CCc1noc(NC(C)=O)c1-c1ccc(OC)c(S(=O)(=O)Nc2cccc(Cl)c2C)c1	894 s
O=C(Nc1ccccc1Cl)N(CCc1cccs1)C1CC1	1120 s
c1cc(-c2noc(C3CCOC3)n2)cc(N2CCOCC2)n1 (stereo not drawn)	651 s
CNC(=O)c1ccc(-c2nc3cc(NS(=O)(=O)c4ccc(C)cc4C)ccc3n2C)cc1	657 s
Cc1ccc(C(=O)N2CCC(COc3ccc(C(=O)NC(C)C)cc3)CC2)cc1C	916 s
O=C(c1cc2ccccc2[nH]1)N1CCN2CCS(=O)(=O)N(C3CC3)C(=O)C2C1 (stereo not drawn)	780 s
CCC(NC(=O)c1cn2ccc(C)cc2n1)c1ccc(OC)cc1 (stereo not drawn)	707 s
Cc1nn2c(CNS(=O)(=O)Cc3cc(F)cc(F)c3)c(-c3ccccc3)nc2s1	929 s

Compound	RP-LC retention time
O=C(CCC1CCN(c2cc(NC3CC3)ncn2)CC1)NCc1ccccc1F	673 s
O=C(c1cccc(Br)c1)N1CCN(CCn2cccn2)CC1	554 s
CCCN1C(=O)c2c(C(=O)NCc3ccc(N(C)C)cc3)ncn2CC1(C)C(=O)NCCC(C)C (stereo not drawn)	649 s
O=C(NCc1ccccc1F)C1CCCN(c2nc3ccsc3c(=O)n2Cc2ccc(F)cc2)C1 (stereo not drawn)	958 s
Cc1cc(C)cc(NC(=O)N2CCC3(CC2)NC(=O)c2cc(F)ccc2N3C)c1	769 s
COc1cccc(NC(=O)C2CCN(C(=O)C3CC(=O)N(c4ccccc4)C3)CC2)c1 (stereo not drawn)	714 s
Cn1c(=O)oc2cc(-c3noc(CNC(=O)Cc4ccccc4)n3)ccc21	760 s
COC(=O)Cn1nc2c(-c3nc(-c4ccc(Cl)cc4)no3)cccn2c1=O	911 s
O=C(c1csc(N2CCN(c3ccc(Cl)cc3)CC2)n1)N1CCCCC1	1130 s
COc1ccc(-c2ccc(=O)n(CCCNC(=O)c3ccc(C(F)(F)F)cc3)n2)cc1	824 s
CCCCNc1nnc(-c2nnc(C)o2)c2ccccc12	637 s
Cc1ccc(-n2c(SCc3nc(-c4ccc(F)cc4)no3)nc3cc4c(cc3c2=O)OCO4)cc1	1220 s
CCN1c2cc(Cl)ccc2C(=O)NC12CCN(C(=O)NCCc1ccccc1)CC2	863 s
COC(=O)c1ncn2c1C(=O)N(c1ccccc1C)C(C)(C(=O)NCc1ccccc1)C2 (stereo not drawn)	715 s
OCC1CN(c2ncccn2)CC12CCN(Cc1cc(Cl)ccc1F)CC2 (stereo not drawn)	577 s
CCCCCN(CC(=O)N1CCNCC1)C(=O)c1cccc(Br)c1	664 s
O=C(Nc1cccc(Br)c1)N1CCc2nc(-c3ccc(F)cc3)ncc2C1	1060 s
CCOC(=O)C1CCN(C(=O)Cn2c(=O)c3cccn3c3ccc(F)cc32)CC1	802 s
COc1ncccc1CNC(=O)c1ccc(C)nc1	562 s
O=C(NCc1cccs1)C1CCN(C(=O)c2cc(-c3ccncc3)n[nH]2)CC1	572 s
COc1ccc(OC)c(S(=O)(=O)Cc2nc(-c3ccc(C)cc3)no2)c1	1000 s
CCc1nc2cc(N3CCC(C(=O)NC(C)c4ccc(OC)cc4)CC3)cnc2nc1CC (stereo not drawn)	868 s

Compound	RP-LC retention time
COc1cccc(Cn2cccc(S(=O)(=O)N3CCCC3)c2=O)c1	807 s
O=C(C1=CN(c2cccc(F)c2)c2cc(Cl)ccc2S1(=O)=O)N1CCOCC1	825 s
CCCCC(C)C(=O)N1CCCN(C2=NS(=O)(=O)C(c3ccc(CC)cc3)=C2C)CC1 (stereo not drawn)	1020 s
C=CCn1c(SCC(=O)OCC)nnc1-c1ccc([N+](=O)[O-])cc1	743 s
CCOc1cc(-c2nc(C3CC(=O)N(c4ccc(Cl)cc4)C3)no2)cc(OCC)c1OCC (stereo not drawn)	1240 s
COc1ccc(OCC2c3cc(OC)c(OC)cc3CCN2C(=O)CC(C)C)cc1 (stereo not drawn)	891 s
CCc1ccccc1NS(=O)(=O)c1cc(-c2cc(C(F)(F)F)on2)sc1C	1210 s
COc1ccccc1CN1CCc2nc(N3CCN(c4ncccn4)CC3)ncc2C1	716 s
Cc1nn(C)cc1CN(C)C(=O)CC(c1ccccc1)c1ccccc1	765 s
O=C(NCc1cccs1)c1cccn1Cc1noc(-c2ccccc2)n1	972 s
Clc1ccccc1-c1ccc(CNc2ncn[nH]2)o1	676 s
Cn1c(N2CCCC(C(=O)N3CCN(c4cccc(C(F)(F)F)c4)CC3)C2)cc(=O)n(C)c1=O (stereo not drawn)	831 s
CC(NC(=O)C1CCCN(C(=O)c2cc3sccc3n2C)C1)C12CC3CC(CC(C3)C1)C2 (stereo not drawn)	1090 s
O=C(Nc1ccc(F)cc1Cl)C1CCN(C(=O)c2cccn2-c2cccnc2)CC1	727 s
Cc1cc(NC(=O)C2CCN(C(=O)c3ncn4c3COC(c3ccc(F)cc3)C4)CC2)ccc1F (stereo not drawn)	839 s
COc1cc(-c2noc(Cn3cnc4c(cnn4-c4ccccc4)c3=O)n2)cc(OC)c1OC	920 s
COc1cccc(CNC2=NCCNC23CCN(S(=O)(=O)c2cc(C)c(C)cc2C)CC3)c1	836 s
O=C(NC1CC1)c1ccc(OCC2CCCN(C(=O)c3ccoc3)C2)cc1 (stereo not drawn)	712 s
CN(c1nccn2c(=O)n(CC(=O)Nc3ccc(F)cc3)nc12)C1CCCCC1	749 s
CCC(=O)N(C1CCOCC1)C1CCN(S(=O)(=O)c2ccccc2F)CC1	797 s
N#Cc1ccc(C(=O)Nc2ccc(-c3nnc4n3CCCC4)cc2)cc1	643 s
COc1ccc(N2C=C(C(=O)N3CCCCC3)S(=O)(=O)c3ccccc32)cc1	859 s
